Assay results from patent US8592467B2, “Benzothiazole cyclobutyl amine derivatives” (Abbvie Inc., priority 2005, dated 2013).

Compound	melting point [°C]
O=c1cccnn1-c1ccc2nc([C@H]3C[C@H](N4CCCCC4)C3)sc2c1 [Example 48A, Trans-2-[2-(3-piperidin-1-ylcyclobutyl)-1,3-benzothiazol-6-yl]pyridazin-3(2H)-one]	139 to 140
O=c1cccnn1-c1ccc2nc([C@H]3C[C@@H](N4CCCCC4)C3)sc2c1 [Example 48B, Cis-2-[2-(3-piperidin-1-ylcyclobutyl)-1,3-benzothiazol-6-yl]pyridazin-3(2H)-one]	127 to 128
